Test results as given in the NIST ThermoML archive (doi:10.1016/j.jct.2015.08.014).

Assay: xn = mol fraction of the nth substance listed
Conditions: 100 kPa, Liquid; for electrical conductivity: Alternating current cell with electrodes; for mass density: Vibrating tube method; for viscosity: Capillary tube (Ostwald / Ubbelohde) method

CCCC[N+]1(C)CCCC1.N#CN=C=[N-] [1-butyl-1-methylpyrrolidinium dicyanamide] + O=C1CCCO1
Conditions | electrical conductivity [S/m]
273.15 K, Frequency=0.00892857 MHz, x1 = 0.9013 | 0.563
273.15 K, Frequency=0.00892857 MHz, x1 = 1 | 0.523
273.15 K, Frequency=0.00961538 MHz, x1 = 0.0463 | 0.978
273.15 K, Frequency=0.00961538 MHz, x1 = 0.0987 | 1.43
273.15 K, Frequency=0.00961538 MHz, x1 = 0.1449 | 1.57
273.15 K, Frequency=0.00961538 MHz, x1 = 0.1859 | 1.635
273.15 K, Frequency=0.00961538 MHz, x1 = 0.2493 | 1.517
273.15 K, Frequency=0.00961538 MHz, x1 = 0.3029 | 1.42
273.15 K, Frequency=0.00961538 MHz, x1 = 0.3845 | 1.25
273.15 K, Frequency=0.00961538 MHz, x1 = 0.4985 | 1.03
273.15 K, Frequency=0.00961538 MHz, x1 = 0.6954 | 0.742
273.15 K, Frequency=0.00961538 MHz, x1 = 0.9013 | 0.563
273.15 K, Frequency=0.00961538 MHz, x1 = 1 | 0.523
273.15 K, Frequency=0.01 MHz, x1 = 0.0463 | 0.978
273.15 K, Frequency=0.01 MHz, x1 = 0.0987 | 1.43
273.15 K, Frequency=0.01 MHz, x1 = 0.1449 | 1.57
273.15 K, Frequency=0.01 MHz, x1 = 0.1859 | 1.635
273.15 K, Frequency=0.01 MHz, x1 = 0.2493 | 1.517
273.15 K, Frequency=0.01 MHz, x1 = 0.3029 | 1.42
273.15 K, Frequency=0.01 MHz, x1 = 0.3845 | 1.25
273.15 K, Frequency=0.01 MHz, x1 = 0.4985 | 1.03
273.15 K, Frequency=0.01 MHz, x1 = 0.6954 | 0.742
273.15 K, Frequency=0.01 MHz, x1 = 0.9013 | 0.563
273.15 K, Frequency=0.01 MHz, x1 = 1 | 0.523
283.15 K, Frequency=0.0005 MHz, x1 = 0.0463 | 1.16
283.15 K, Frequency=0.0005 MHz, x1 = 0.0987 | 1.73
283.15 K, Frequency=0.0005 MHz, x1 = 0.1449 | 1.92
283.15 K, Frequency=0.0005 MHz, x1 = 0.1859 | 2.018
283.15 K, Frequency=0.0005 MHz, x1 = 0.2493 | 1.921
283.15 K, Frequency=0.0005 MHz, x1 = 0.3029 | 1.84
283.15 K, Frequency=0.0005 MHz, x1 = 0.3845 | 1.65
283.15 K, Frequency=0.0005 MHz, x1 = 0.4985 | 1.407
283.15 K, Frequency=0.0005 MHz, x1 = 0.6954 | 1.07
283.15 K, Frequency=0.0005 MHz, x1 = 0.9013 | 0.849
283.15 K, Frequency=0.0005 MHz, x1 = 1 | 0.786
283.15 K, Frequency=0.001 MHz, x1 = 0.0463 | 1.16
283.15 K, Frequency=0.001 MHz, x1 = 0.0987 | 1.73
283.15 K, Frequency=0.001 MHz, x1 = 0.1449 | 1.92
283.15 K, Frequency=0.001 MHz, x1 = 0.1859 | 2.027
283.15 K, Frequency=0.001 MHz, x1 = 0.2493 | 1.923
283.15 K, Frequency=0.001 MHz, x1 = 0.3029 | 1.84
283.15 K, Frequency=0.001 MHz, x1 = 0.3845 | 1.65
283.15 K, Frequency=0.001 MHz, x1 = 0.4985 | 1.407
283.15 K, Frequency=0.001 MHz, x1 = 0.6954 | 1.07
283.15 K, Frequency=0.001 MHz, x1 = 0.9013 | 0.849
283.15 K, Frequency=0.001 MHz, x1 = 1 | 0.786
283.15 K, Frequency=0.0015 MHz, x1 = 0.0463 | 1.17
283.15 K, Frequency=0.0015 MHz, x1 = 0.0987 | 1.73
283.15 K, Frequency=0.0015 MHz, x1 = 0.1449 | 1.92
283.15 K, Frequency=0.0015 MHz, x1 = 0.1859 | 2.027
283.15 K, Frequency=0.0015 MHz, x1 = 0.2493 | 1.924
283.15 K, Frequency=0.0015 MHz, x1 = 0.3029 | 1.84
283.15 K, Frequency=0.0015 MHz, x1 = 0.3845 | 1.66
283.15 K, Frequency=0.0015 MHz, x1 = 0.4985 | 1.407
283.15 K, Frequency=0.0015 MHz, x1 = 0.6954 | 1.07
283.15 K, Frequency=0.0015 MHz, x1 = 0.9013 | 0.849
283.15 K, Frequency=0.0015 MHz, x1 = 1 | 0.786
283.15 K, Frequency=0.002 MHz, x1 = 0.0463 | 1.17
283.15 K, Frequency=0.002 MHz, x1 = 0.0987 | 1.73
283.15 K, Frequency=0.002 MHz, x1 = 0.1449 | 1.92
283.15 K, Frequency=0.002 MHz, x1 = 0.1859 | 2.027
283.15 K, Frequency=0.002 MHz, x1 = 0.2493 | 1.925
283.15 K, Frequency=0.002 MHz, x1 = 0.3029 | 1.84
283.15 K, Frequency=0.002 MHz, x1 = 0.3845 | 1.66
283.15 K, Frequency=0.002 MHz, x1 = 0.4985 | 1.407
283.15 K, Frequency=0.002 MHz, x1 = 0.6954 | 1.07
283.15 K, Frequency=0.002 MHz, x1 = 0.9013 | 0.849
283.15 K, Frequency=0.002 MHz, x1 = 1 | 0.786
283.15 K, Frequency=0.0025 MHz, x1 = 0.0463 | 1.17
283.15 K, Frequency=0.0025 MHz, x1 = 0.0987 | 1.73
283.15 K, Frequency=0.0025 MHz, x1 = 0.1449 | 1.93
283.15 K, Frequency=0.0025 MHz, x1 = 0.1859 | 2.028
283.15 K, Frequency=0.0025 MHz, x1 = 0.2493 | 1.925
283.15 K, Frequency=0.0025 MHz, x1 = 0.3029 | 1.84
283.15 K, Frequency=0.0025 MHz, x1 = 0.3845 | 1.66
283.15 K, Frequency=0.0025 MHz, x1 = 0.4985 | 1.407
283.15 K, Frequency=0.0025 MHz, x1 = 0.6954 | 1.07
283.15 K, Frequency=0.0025 MHz, x1 = 0.9013 | 0.849
283.15 K, Frequency=0.0025 MHz, x1 = 1 | 0.786
283.15 K, Frequency=0.003 MHz, x1 = 0.0463 | 1.17
283.15 K, Frequency=0.003 MHz, x1 = 0.0987 | 1.73
283.15 K, Frequency=0.003 MHz, x1 = 0.1449 | 1.93

Conditions | electrical conductivity, 283.15 K [S/m] | mass density, 273.15 K [kg/m3] | viscosity, 283.15 K [mPa·s]
x1 = 0.0463 | 1.17 | – | –
x1 = 0.0987 | 1.73 | 1124.75 | 3.75
x1 = 0.1449 | 1.93 | – | –
x1 = 0.1859 | 2.028 | 1107.12 | 5.58
x1 = 0.2493 | 1.926 | – | –
x1 = 0.3029 | 1.84 | 1087.92 | 8.99
x1 = 0.3845 | 1.66 | – | –
x1 = 0.4985 | 1.407 | 1063.96 | 17.71
x1 = 0.6954 | 1.07 | 1046.52 | 30.79
x1 = 0.9013 | 0.849 | 1032.97 | 49.24
x1 = 1 | 0.786 | 1027.69 | 59.6
